In PubChem BioAssay (NCI):
“And” between values parts separate entries of the source, which are not always exact repeats. Equal entries are not always repeated.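 96-well plates; 48 h exposure; 5 concentrations. Endpoints by linear interpolation between flanking doses. Not reached: highest tested concentration assigned. GI50 marks 50% less growth. TGI: concentration producing complete growth inhibition.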

Key:
Assay in all cases: NCI anticancer screen, dose series, 48 h
786-0 renal = test system: 786-0 renal
A498 renal = test system: A498 renal
EKVX NSCLC = test system: EKVX NSCLC
HOP-92 NSCLC = test system: HOP-92 NSCLC
NCI-H522 lung = test system: NCI-H522 lung
RXF 393 renal = test system: RXF 393 renal
SN12C renal = test system: SN12C renal
SR leukemia = test system: SR leukemia
IGROV1 ovarian = test system: IGROV1 ovarian

Row | Structure (SMILES) | GI50 (786-0 renal) [µM] | TGI (786-0 renal) | GI50 (A498 renal) [µM] | TGI (A498 renal) | GI50 (EKVX NSCLC) [µM] | TGI (EKVX NSCLC) | GI50 (HOP-92 NSCLC) [µM] | TGI (HOP-92 NSCLC) | GI50 (NCI-H522 lung) [µM] | TGI (NCI-H522 lung) [µM] | GI50 (RXF 393 renal) [µM] | TGI (RXF 393 renal) | GI50 (SN12C renal) [µM] | TGI (SN12C renal) | GI50 (SR leukemia) [µM] | TGI (SR leukemia) [µM] | TGI (IGROV1 ovarian) | GI50 (IGROV1 ovarian) [µM]
1 | C[N+]1=C(/C=C/c2ccc(O)c3ncccc23)C(C)(C)c2ccccc21 | 3.57 | 13 µM | 1.97 | 11 µM | 2.01 | 7.16 µM | 2.22 | 7.67 µM | 2.83 | 11.6 | 4 | 16 µM | 2.82 | 10.4 µM | 2.13 | 15 |  | 
2 | COc1cc(C(=O)CBr)c(OC)cc1C |  | > 100 µM |  | > 100 µM |  | > 100 µM |  |  |  | > 100 |  | > 100 µM |  | > 100 µM |  | > 100 | > 100 µM | 
3 | NC(=O)COC(=O)c1c(Cl)nc2sccn12 |  | 36 µM |  | > 100 µM |  | > 100 µM |  | > 100 µM |  | > 100 |  |  |  | > 100 µM |  | 85.4 | > 100 µM | 
4 | O=C(Nc1ccc(-c2nc(N3CCOCC3)c3cccn3n2)cc1)Nc1cccnc1 | 0.178 | 1.98 µM | 0.0475 | 0.328 µM | 0.216 | 0.975 µM |  | 0.0637 µM | 0.125 | > 100 | 0.0345 | 0.359 µM |  |  | 0.245 | 15 | 0.464 µM | 0.0767
5 | Nc1nc2c(nnn2C2CC(O)C(CO)O2)c(=O)[nH]1 (stereo not drawn) | 2.99 | > 100 µM | 8.22 | > 48.1 µM | 93.5 | > 100 µM | 1.62 | 51.1 µM | 3.81 | > 100 | 3.05 | 33.8 µM | 5.44 | > 100 µM | 2.54 | > 76.2 | > 100 µM | 9.49
6 | CNC(=O)C1CCc2nnc(-c3ccccc3)n21 (stereo not drawn) |  | > 100 µM |  | > 100 µM |  | > 100 µM |  |  |  | > 100 |  | > 100 µM |  | > 100 µM |  | > 100 | > 100 µM | 
7 | CCN(CC)CCCC(C)Nc1c2ccc(Cl)cc2nc2ccc(O)cc12 (stereo not drawn) | 2.77 | 11.9 µM | 0.457 | 18.2 µM | 2.94 | 11.6 µM | 2.05 | 12 µM | 1.28 | 3.71 | 1.61 | 4.27 µM | 2.59 | 16.6 µM | 2.07 | 7.11 |  | 
8 | O=C1C(Cl)=C(NCCN2CCOCC2)C(=O)c2ncccc21 | 2.5 | 2.81 µM and 7.83 µM | 1.91 | 7.65 µM and 10.9 µM |  | 3.41 µM and 3.6 µM |  | 3.84 µM and 5.47 µM |  |  | 1.66 | 3.38 µM and 3.06 µM | 1.93 | 3.2 µM and 3.84 µM | 2.01 | 5.61 | 3.73 µM and 3.4 µM | 1.71
9 | CC(SC(=S)N1CCOCC1)c1cc2oc(=O)n(C)c2cc1Cl (stereo not drawn) |  | > 100 µM |  |  |  | > 100 µM |  | > 10 µM |  |  |  | > 100 µM |  | > 100 µM |  | > 100 | > 10 µM | 
10 | O=c1cc(-c2ccccc2)oc2cc(OC/C(=N/O)c3ccccc3)ccc12 | 26.1 | > 50 µM |  |  | 24.8 | > 50 µM | 13.8 | > 50 µM | 9.61 | > 50 | 16 | > 50 µM | 10.9 | 44.6 µM | 31.8 | > 50 |  | 
11 | COc1ccc(-c2nc(-c3nc4ccc(Cl)cc4[nH]3)c3ccccn23)cc1 | 1.6 | 3.22 µM | 5.61 | 29.2 µM |  |  | 2.19 | 6.09 µM | 4.24 | 18.4 | 1.94 | 3.85 µM | 3.75 | 17.8 µM | 12.6 | > 100 | 22.9 µM | 4.95
12 | Cc1cc(N(CCC#N)CCC#N)ccc1/C=C1\N=C(c2cc([N+](=O)[O-])ccc2Cl)N(c2cccc(Cl)c2)C1=O |  | > 100 µM |  | > 100 µM |  | > 100 µM |  | > 100 µM |  | > 100 |  |  |  | > 100 µM |  | > 100 | > 100 µM | 
13 | Cc1ccc(C(=O)N(CCCN)C(c2oc3cc(Cl)ccc3c(=O)c2Cc2ccccc2)C(C)C)cc1 (stereo not drawn) | < 0.01 | 2.11 µM | < 0.01 |  |  |  | < 0.01 | 1.76 µM | < 0.01 | < 0.01 | < 0.01 | 1.48 µM | < 0.01 | 2.07 µM | < 0.01 | 1.86 | 2.72 µM | 
14 | O/N=C/c1ncccc1C1OCCO1 |  | > 100 µM |  |  |  | > 100 µM |  | > 100 µM |  | > 100 |  | > 100 µM |  | > 100 µM |  | > 100 | > 100 µM | 
15 | Cn1c2ccccc2c2ccc3c(c21)C(=O)c1ccccc1C3=O |  | 47.3 µM |  |  |  | > 100 µM |  | 54.2 µM |  | 29.6 |  | 32 µM |  | 73.1 µM |  | 13.9 | 31.4 µM | 
16 | CCCC(=O)OCC1OC(n2cnc3c(=S)nc[nH]c32)C(OC(=O)CCC)C1OC(=O)CCC (stereo not drawn) | 3.46 | > 100 µM | 33.2 | > 100 µM | 35 | > 100 µM |  |  | 4.62 | > 100 | 26 | > 100 µM | 4.58 | > 100 µM | 2.02 | 40.2 | > 100 µM | 10.3
17 | O=C1c2ccccc2C(=O)N1CCc1ncc[nH]1 |  | > 100 µM |  |  |  | > 100 µM |  | > 100 µM |  | > 100 |  |  |  | > 100 µM |  | > 100 | > 100 µM | 
18 | CCCCCCCCn1ccc2cc(NC(=O)Cn3cc(CN4CCCC4)nn3)ccc21 | 1.69 | 3.13 µM | 1.7 | 3.35 µM | 1.82 | 4 µM |  |  | 1.75 | 3.6 | 1.6 | 3.37 µM | 1.74 | 3.29 µM | 2.3 | 6.34 | 3.59 µM | 1.74
19 | CCCn1c(=S)sc2c1nc(C)n1c(Nc3ccccc3)nnc21 | 4.3 | 49.2 µM | 2.52 | 14.1 µM |  |  | 2.31 | 20.2 µM | 3.57 | 15.5 | 15.1 | > 100 µM | 4.63 | > 100 µM | 1.83 | 16 | > 100 µM | 25.8
